Laboratory results as given in patent publication US20140221283A1 (Indiana University Research and Technology Corporation, priority 2011, published 2014).
*1 amine or outer side, *2 acyl side, *3 side chain or, on linkers, in order; H or OH if unused. Where a SMILES comes first, the peptide text is derived from it. Where no end group is shown, it is not given here. Side-chain parts run from the residue outwards. [ ]: non-standard residue; d: D form. The star is where a group is joined. γGlu = O=C(O)[C@H](CCC(=O)[*:2])N[*:1]; Palmitoyl = CCCCCCCCCCCCCCCC(=O)*; Aib = CC(C)(N)C(=O)O

Tests used:
[1] = target: T1, glucagon receptor (Homo sapiens, UniProt P47871); experiment: firefly luciferase-based cAMP reporter assay, HEK293 cells co-transfected with glucagon receptor (Example 3); assay type: cell-based; details: procedure of Example 3
T1 construct: expressed in transfected cells; host or cells: HEK293
T1 sequence (P47871 26-477): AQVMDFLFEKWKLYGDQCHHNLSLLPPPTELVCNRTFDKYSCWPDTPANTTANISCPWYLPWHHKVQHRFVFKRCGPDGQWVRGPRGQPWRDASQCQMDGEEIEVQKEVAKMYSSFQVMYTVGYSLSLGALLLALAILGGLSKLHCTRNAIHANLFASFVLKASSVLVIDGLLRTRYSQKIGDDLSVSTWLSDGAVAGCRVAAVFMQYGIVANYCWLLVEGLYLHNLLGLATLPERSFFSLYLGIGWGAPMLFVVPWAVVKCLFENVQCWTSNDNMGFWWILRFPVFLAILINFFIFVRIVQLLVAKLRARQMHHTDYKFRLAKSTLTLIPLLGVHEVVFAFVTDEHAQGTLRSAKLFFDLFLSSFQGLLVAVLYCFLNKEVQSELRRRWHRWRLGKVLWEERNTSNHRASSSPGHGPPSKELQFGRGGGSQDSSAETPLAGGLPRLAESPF
Description: (§1) The ability of each peptide to induce cAMP was measured in a firefly luciferase-based reporter assay.
(§2) At the end of the incubation, 100 μL of LucLite luminescence substrate reagent (Perkin Elmer, Wellesley, Mass.) were added to each well.

[2] = target: human GLP-1R (Homo sapiens, UniProt P43220); experiment: firefly luciferase-based cAMP reporter assay, HEK293 cells co-transfected with GLP-1 receptor (Example 3); assay type: cell-based; set-up: expressed in transfected cells; host or cells: HEK293; details: procedure of Example 3
human GLP-1R, sequence (P43220 24-463): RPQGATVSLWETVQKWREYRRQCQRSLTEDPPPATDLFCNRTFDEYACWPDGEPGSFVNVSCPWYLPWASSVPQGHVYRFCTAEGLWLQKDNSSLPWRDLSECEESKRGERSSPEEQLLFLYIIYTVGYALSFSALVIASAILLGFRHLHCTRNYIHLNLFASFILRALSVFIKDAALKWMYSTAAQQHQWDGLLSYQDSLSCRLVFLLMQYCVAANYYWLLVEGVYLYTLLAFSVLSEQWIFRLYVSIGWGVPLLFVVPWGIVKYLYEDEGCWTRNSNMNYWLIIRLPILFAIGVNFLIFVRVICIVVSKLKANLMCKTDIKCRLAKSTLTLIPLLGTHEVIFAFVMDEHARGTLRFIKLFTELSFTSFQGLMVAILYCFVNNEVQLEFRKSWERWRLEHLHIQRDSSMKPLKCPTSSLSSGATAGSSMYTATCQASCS
Description: as §1, §2

[3] = body weight of diet-induced obese (DIO) mice dosed daily for nine days (Example 7); assay type: in vivo; details: Day 9; for body weight reduction: 3 nmol/kg daily; for body weight loss: 9 nmol/kg daily
Description: (§3) Mice were administered a vehicle control or a dose of a peptide daily for nine days. The peptides tested in this study included a peptide of SEQ ID NO: 12, a peptide of SEQ ID NO: 17, a peptide of SEQ ID NO: 18, and a peptide of SEQ ID NO: 19. Doses of each peptide were varied—each of the peptides of SEQ ID NO: 12, 17, and 19 was administered at a dose of either 3 nmol/kg or 9 nmol/kg, while the peptide of SEQ ID NO: 18 was administered at a dose of 1 nmol/kg, 3 nmol/kg, or 9 nmol/kg. Data are expressed as mean±SEM.

[4] = target: T2, GIP receptor (Homo sapiens, UniProt P48546); experiment: firefly luciferase-based cAMP reporter assay, HEK293 cells, GIP receptor (Example 3); assay type: cell-based; details: procedure of Example 3
T2 construct: expressed in transfected cells; host or cells: HEK293
T2 sequence (P48546 22-466): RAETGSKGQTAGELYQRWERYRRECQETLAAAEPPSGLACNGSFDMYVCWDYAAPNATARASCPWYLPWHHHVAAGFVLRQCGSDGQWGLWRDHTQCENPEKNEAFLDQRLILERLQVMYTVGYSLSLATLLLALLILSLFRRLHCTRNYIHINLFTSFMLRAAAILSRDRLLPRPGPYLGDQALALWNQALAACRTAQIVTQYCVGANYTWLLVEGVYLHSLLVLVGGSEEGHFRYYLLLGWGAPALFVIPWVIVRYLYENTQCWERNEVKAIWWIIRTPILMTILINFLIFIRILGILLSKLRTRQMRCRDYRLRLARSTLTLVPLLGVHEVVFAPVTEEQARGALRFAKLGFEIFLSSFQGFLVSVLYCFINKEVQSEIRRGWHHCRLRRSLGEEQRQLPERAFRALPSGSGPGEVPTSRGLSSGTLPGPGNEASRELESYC
Description: It is understood that a lower EC50 indicates higher activity or potency at the receptor.
as §1, §2
In some instances, the in vitro agonist activity at the GIP receptor was also tested.

[5] = ambient glucose levels of DIO mice dosed daily for nine days (Example 7); assay type: in vivo; details: for decrease in ambient glucose vs. vehicle: by Day 4
Description: as §3
In addition to cumulative body weight change, ambient glucose levels of the DIO mice were measured.

Row | EC50 [1] | EC50 [2] | EC50 [4] | Compound | body weight reduction [3] | body weight loss [3] | decrease in ambient glucose vs. vehicle ([5]; 3 nmol/kg daily) | decrease in ambient glucose vs. vehicle ([5]; 9 nmol/kg daily) | decrease in glucose levels compared to vehicle control mice ([5]; 9 nmol/kg daily, Day 4) | decrease in glucose levels compared to vehicle control mice ([5]; 9 nmol/kg daily, Day 7) | decrease in glucose levels compared to vehicle control mice ([5]; 9 nmol/kg daily, Day 9)
1 | 10 pM | 3 pM | 12.8 nM | CCCCCCCCCCCCCCCC(=O)N[C@@H](CCC(=O)N[C@@H](CCC(=O)NCCCC[C@H](NC(=O)[C@H](CC(=O)O)NC(=O)[C@H](CO)NC(=O)[C@@H](NC(=O)[C@H](Cc1ccccc1)NC(=O)[C@@H](NC(=O)CNC(=O)[C@H](CCC(N)=O)NC(=O)C(C)(C)NC(=O)[C@@H](N)Cc1c[nH]cn1)[C@@H](C)O)[C@@H](C)O)C(=O)N[C@@H](CO)C(=O)N[C@@H](CCCCN)C(=O)N[C@@H](Cc1ccc(O)cc1)C(=O)N[C@@H](CC(C)C)C(=O)N[C@@H](CC(=O)O)C(=O)NC(C)(C)C(=O)N[C@@H](CCCNC(=N)N)C(=O)N[C@@H](C)C(=O)N[C@@H](C)C(=O)N[C@@H](CCC(N)=O)C(=O)N[C@@H](CC(=O)O)C(=O)N[C@@H](Cc1ccccc1)C(=O)N[C@H](C(=O)N[C@@H](CCC(N)=O)C(=O)N[C@@H](Cc1c[nH]c2ccccc12)C(=O)N[C@@H](CC(C)C)C(=O)N[C@@H](CCSC)C(=O)N[C@@H](CC(=O)O)C(=O)N[C@H](C(=O)N[C@@H](CCCCN)C(=O)N[C@@H](CCC(N)=O)C(=O)O)[C@@H](C)O)C(C)C)C(=O)O)C(=O)O [SEQ ID NO: 12] (H-H[Aib]QGTFTSDK([γGlu-γGlu-Palmitoyl])SKYLD[Aib]RAAQDFVQWLMDTKQ-OH; N-terminus assumed) | ~5.3% | ~29.8% |  |  |  |  | 
2 | 15 pM | 19 pM | 1.04 nM | CCCCCCCCCCCCCCCC(=O)N[C@@H](CCC(=O)N[C@@H](CCC(=O)NCCCC[C@H](NC(=O)[C@H](CC(=O)O)NC(=O)[C@H](CO)NC(=O)[C@@H](NC(=O)[C@H](Cc1ccccc1)NC(=O)[C@@H](NC(=O)CNC(=O)[C@H](CCC(N)=O)NC(=O)C(C)(C)NC(=O)[C@@H](N)Cc1c[nH]cn1)[C@@H](C)O)[C@@H](C)O)C(=O)N[C@@H](CO)C(=O)N[C@@H](CCCCN)C(=O)N[C@@H](Cc1ccc(O)cc1)C(=O)N[C@@H](CC(C)C)C(=O)N[C@@H](CC(=O)O)C(=O)NC(C)(C)C(=O)N[C@@H](CCCNC(=N)N)C(=O)N[C@@H](C)C(=O)N[C@@H](C)C(=O)N[C@@H](CCC(N)=O)C(=O)N[C@@H](CC(=O)O)C(=O)N[C@@H](Cc1ccccc1)C(=O)N[C@H](C(=O)N[C@@H](CCC(N)=O)C(=O)N[C@@H](Cc1c[nH]c2ccccc12)C(=O)N[C@@H](CC(C)C)C(=O)N[C@@H](CC(C)C)C(=O)N[C@@H](CC(=O)O)C(=O)N[C@H](C(=O)N[C@@H](CCCCN)C(=O)N[C@@H](CCC(N)=O)C(=O)O)[C@@H](C)O)C(C)C)C(=O)O)C(=O)O [SEQ ID NO: 16] (H-H[Aib]QGTFTSDK([γGlu-γGlu-Palmitoyl])SKYLD[Aib]RAAQDFVQWLLDTKQ-OH; N-terminus assumed) |  |  |  |  |  |  | 
3 |  |  |  | SEQ ID NO: 18: peptide of SEQ ID NO: 18 tested in DIO mice; sequence only in the sequence listing (HXQGTFTSDKSKYLDERAAQDFVQWLMDT; not fully specified; Xaa is AIB; Acylated with a C16 fatty acyl group via gamma- Glu-gamma-Glu spacer; C-terminal amidation) | ~12.3% | ~26.8% | −29% | −29% |  |  | 
4 |  |  |  | SEQ ID NO: 19: peptide of SEQ ID NO: 19 tested in DIO mice; sequence only in the sequence listing (H[dS]QGTFTSDK([γGlu-Palmitoyl])SKYLDERAAQDFVQWLLDT-NH2; N-terminus assumed; SMILES CCCCCCCCCCCCCCCC(=O)N[C@@H](CCC(=O)NCCCC[C@H](NC(=O)[C@H](CC(=O)O)NC(=O)[C@H](CO)NC(=O)[C@@H](NC(=O)[C@H](Cc1ccccc1)NC(=O)[C@@H](NC(=O)CNC(=O)[C@H](CCC(N)=O)NC(=O)[C@@H](CO)NC(=O)[C@@H](N)Cc1c[nH]cn1)[C@@H](C)O)[C@@H](C)O)C(=O)N[C@@H](CO)C(=O)N[C@@H](CCCCN)C(=O)N[C@@H](Cc1ccc(O)cc1)C(=O)N[C@@H](CC(C)C)C(=O)N[C@@H](CC(=O)O)C(=O)N[C@@H](CCC(=O)O)C(=O)N[C@@H](CCCNC(=N)N)C(=O)N[C@@H](C)C(=O)N[C@@H](C)C(=O)N[C@@H](CCC(N)=O)C(=O)N[C@@H](CC(=O)O)C(=O)N[C@@H](Cc1ccccc1)C(=O)N[C@H](C(=O)N[C@@H](CCC(N)=O)C(=O)N[C@@H](Cc1c[nH]c2ccccc12)C(=O)N[C@@H](CC(C)C)C(=O)N[C@@H](CC(C)C)C(=O)N[C@@H](CC(=O)O)C(=O)N[C@H](C(N)=O)[C@@H](C)O)C(C)C)C(=O)O) | ~8.1% | ~31.5% |  |  | ~40% | ~39% | ~26%
